Reference: patent US4190661A, “Pyrazolo-quinolines, compositions and pharmaceutical preparations” (Laboratoires Chauvin-Blache, priority 1977, dated 1980)
≈ marks a conversion by molar mass, not a printed value. Where two headings read alike, the source gives them in different places.

Tests used:
Streptococcus foecalis = assay: antibacterial activity in vitro, dilution in liquid medium method (MIC/MBC); format: cell-based; conditions: read-out: minimum inhibiting concentration (MIC)
Procedure: (§1) The nalidixic acid solution and the solutions containing compounds of the formula (I) were prepared in distilled water with addition of sodium hydroxide.
(§2) The strains used are all obtained from the hospital where they were recently isolated from urinary infections (except Salmonella para B and Listeria which are obtained from a collection):
(§3) Different dilutions of 24 hour cultures in physiological saline were used, depending on the respective growth rate of each germ:
(§4) The test is conducted in phenol red glucose broth inoculated with 0.1 ml of the dilution of the germ studied per 3 ml of broth.
(§5) The bactericidal activity was investigated according to the dilution in liquid medium method.
(§6) After 18 hours in an oven at 37° C., the minimum inhibiting concentration (MIC) corresponding to the last tube whose pH remains unmodified was noted.
(§7) The minimum bactericidal concentration (MBC) was investigated by spreading on a dish of agar medium a dosage of material taken from the tubes which have remained clear. The MBC/24 hrs is the lowest concentration for which the survival rate is zero after a contact time of 24 hours.

Klebsiella pneumoniae = assay: as above; format: cell-based; conditions: read-out: minimum inhibiting concentration (MIC)
Procedure: as §1, §2, §3, §4, §5, §6, §7

Pseudomonas aeruginosa = assay: as above; format: cell-based; conditions: read-out: minimum inhibiting concentration (MIC)
Procedure: as §1, §2, §3, §4, §5, §6, §7

Staphylococcus aureus = assay: as above; format: cell-based; conditions: read-out: minimum inhibiting concentration (MIC)
Procedure: as §1, §2, §3, §4, §5, §6, §7

Proteus mirabilis = assay: as above; format: cell-based; conditions: read-out: minimum inhibiting concentration (MIC)
Procedure: as §1, §2, §3, §4, §5, §6, §7

Escherichia coli = assay: as above; format: cell-based; conditions: for MIC: read-out: minimum inhibiting concentration (MIC); for MBC: read-out: minimum bactericidal concentration (MBC)
Procedure: as §1, §2, §3, §4, §5, §6, §7

[1] = test system: Enterobacter liquefaciens; assay: as above; format: cell-based; conditions: for MIC: read-out: minimum inhibiting concentration (MIC)
Procedure: as §1, §2
Enterobacter liquefaciens
as §3, §4, §5, §6, §7

Enterobacter cloacae = assay: as above; format: cell-based; conditions: for MIC: read-out: minimum inhibiting concentration (MIC)
Procedure: as §1, §2, §3, §4, §5, §6, §7

Salmonella para B = assay: as above; format: cell-based; conditions: for MIC: read-out: minimum inhibiting concentration (MIC)
Procedure: as §1, §2, §3, §4, §5, §6, §7

Citrobacter = assay: as above; format: cell-based; conditions: read-out: minimum inhibiting concentration (MIC)
Procedure: as §1, §2, §3, §4, §5, §6, §7

Listeria monocytogenes = assay: as above; format: cell-based; conditions: for MIC: read-out: minimum inhibiting concentration (MIC); for MBC: read-out: minimum bactericidal concentration (MBC)
Procedure: as §1, §2, §3, §4, §5, §6, §7

[2] = acute toxicity, graphical method according to Miller and Tainter; conditions: mouse, in vivo, mice
Text: Indeed, their LD50 values in mice, as determined by the graphical method according to Miller and Tainter are as follows: […]

[3] = Streptococcus foecalis, 18 hours, 37° C.
[4] = Salmonella para B, 18 hours, 37° C.

For CCn1cc(C(=O)O)c(=O)c2c3cn[nH]c3ccc21 [I c, 1-Ethyl-3-carboxy-4-oxo-pyrazolo[4,5-f]quinoline], the MIC (Streptococcus foecalis; [3]) was > 10 µg/mL, the MIC (Klebsiella pneumoniae; 18 hours, 37° C.) was > 10 µg/mL and the MIC (Pseudomonas aeruginosa; 18 hours, 37° C.) was > 10 µg/mL. The MIC (Staphylococcus aureus; 18 hours, 37° C.) was > 10 µg/mL, the MIC (Proteus mirabilis; 18 hours, 37° C.) was > 10 µg/mL and the MIC (Escherichia coli; 18 hours, 37° C.) was > 10 µg/mL.
With CCn1cc(C(=O)O)c(=O)c2c1ccc1cnn(C)c12 [I f, 1-ethyl-3-carboxy-4-oxo-5-methyl-pyrazolo[5,4-f]uinoline] the MIC (Streptococcus foecalis; [3]) was > 10 µg/mL, the MIC (Pseudomonas aeruginosa; 18 hours, 37° C.) was > 10 µg/mL and the MIC (Staphylococcus aureus; 18 hours, 37° C.) was > 10 µg/mL. The MIC (Proteus mirabilis; 18 hours, 37° C.) was > 10 µg/mL.
For CCn1cc(C(=O)O)c(=O)c2ccc(C)nc21 [Nalidixic acid, nalidixic acid, reference compound], the MIC ([1]; Enterobacter, 18 h) was 25 µg/mL (≈ 108 µM), the MBC ([1]; Enterobacter, 24 h, read-out: minimum bactericidal concentration (MBC)) was 100 µg/mL (≈ 431 µM) and the MIC (Streptococcus foecalis; Streptococcus, 18 h) was > 200 µg/mL. The MIC (Enterobacter cloacae; 18 h) was 50 µg/mL (≈ 215 µM), the MBC (Enterobacter cloacae; 24 h, read-out: minimum bactericidal concentration (MBC)) was 100 µg/mL (≈ 431 µM) and the MIC (Salmonella para B; Salmonella, 18 h) was 5 µg/mL (≈ 21.5 µM). For the same compound, the MBC (Salmonella para B; Salmonella, 24 h, read-out: minimum bactericidal concentration (MBC)) was 100 µg/mL (≈ 431 µM), the MIC (Klebsiella pneumoniae; 18 h) was > 200 µg/mL and the MIC (Citrobacter; 18 h) was > 200 µg/mL. For the same compound, the MIC (Listeria monocytogenes; 18 h) was 5 µg/mL (≈ 21.5 µM), the MBC (Listeria monocytogenes; 24 h) was 100 µg/mL (≈ 431 µM) and the MIC (Pseudomonas aeruginosa; 18 h) was > 200 µg/mL. For the same compound, the MIC (Staphylococcus aureus; 18 h) was > 200 µg/mL, the MIC (Proteus mirabilis; 18 h) was > 200 µg/mL and the MIC (Escherichia coli; 18 h) was 5 µg/mL (≈ 21.5 µM). For the same compound, the MBC (Escherichia coli; 24 h) was 100 µg/mL (≈ 431 µM).
Work on CCn1cc(C(=O)O)c(=O)c2c3[nH]ncc3ccc21 [Ie] yielded an LD50 ([2]; ip, intraperitoneal route) of 2500 mg/kg and an LD50 ([2]; oral route) of 4700 mg/kg.
With CCn1cc(C(=O)O)c(=O)c2c3nn(C)cc3ccc21 [I g, 1-ethyl-3-carboxy-4-oxo-6-methyl-pyrazolo[3,4-f]uinoline] the MIC (Streptococcus foecalis; [3]) was > 100 µg/mL, the MIC (Klebsiella pneumoniae; 18 hours, 37° C.) was > 100 µg/mL and the MIC (Pseudomonas aeruginosa; 18 hours, 37° C.) was > 100 µg/mL. The MIC (Staphylococcus aureus; 18 hours, 37° C.) was > 100 µg/mL and the MIC (Proteus mirabilis; 18 hours, 37° C.) was > 100 µg/mL.
In the case of CCn1cc(C(=O)O)c(=O)c2c3cnn(Cc4ccccc4)c3ccc21 [I d, 1-ethyl-3-carboxy-4-oxo-7-benzyl-pyrazolo[4,5-f]quinoline], the MIC (Streptococcus foecalis; [3]) is reported as > 10 µg/mL, the MIC (Pseudomonas aeruginosa; 18 hours, 37° C.) is reported as > 10 µg/mL and the MIC (Staphylococcus aureus; 18 hours, 37° C.) is reported as > 10 µg/mL. The MIC (Proteus mirabilis; 18 hours, 37° C.) was > 10 µg/mL.
With CCn1cc(C(=O)O)c(=O)n2nc3ccccc3c12 [I a, 3-oxo-4-carboxy-6-ethyl-pyrimido[3,2-b]indazole] the MIC (Streptococcus foecalis; [3]) was > 100 µg/mL, the MIC (Salmonella para B; [4]) was > 100 µg/mL and the MIC (Klebsiella pneumoniae; 18 hours, 37° C.) was > 100 µg/mL. The MIC (Pseudomonas aeruginosa; 18 hours, 37° C.) was > 100 µg/mL, the MIC (Staphylococcus aureus; 18 hours, 37° C.) was > 100 µg/mL and the MIC (Proteus mirabilis; 18 hours, 37° C.) was > 100 µg/mL. For the same compound, the MIC (Escherichia coli; 18 hours, 37° C.) was > 100 µg/mL.
In the case of CCn1cc(C(=O)O)c(=O)c2c3[nH]ncc3ccc21 [I e], the MIC ([1]; Enterobacter liquefaciens, 18 hours, 37° C.) is reported as > 10 µg/mL, the MIC (Streptococcus foecalis; [3]) is reported as > 10 µg/mL and the MIC (Enterobacter cloacae; 18 hours, 37° C.) is reported as > 10 µg/mL. For the same compound, the MIC (Salmonella para B; [4]) was > 10 µg/mL, the MIC (Klebsiella pneumoniae; 18 hours, 37° C.) was > 10 µg/mL and the MIC (Citrobacter; 18 hours, 37° C.) was > 10 µg/mL. For the same compound, the MIC (Listeria monocytogenes; 18 hours, 37° C.) was 10 µg/mL (≈ 38.9 µM), the MBC (Listeria monocytogenes; contact time 24 hours) was 100 µg/mL (≈ 389 µM) and the MIC (Pseudomonas aeruginosa; 18 hours, 37° C.) was > 10 µg/mL. For the same compound, the MIC (Staphylococcus aureus; 18 hours, 37° C.) was > 10 µg/mL, the MIC (Proteus mirabilis; 18 hours, 37° C.) was > 10 µg/mL and the MIC (Escherichia coli; 18 hours, 37° C.) was 5 µg/mL (≈ 19.4 µM). The MBC (Escherichia coli; contact time 24 hours) was 100 µg/mL (≈ 389 µM).
For C=Cn1cc(C(=O)O)c(=O)c2c3[nH]ncc3ccc21 [I e', 1-Vinyl-3-carboxy-4-oxo-pyrazolo[5,4-f]quinoline], the LD50 ([2]; ip, intraperitoneal route) was 2800 mg/kg, the LD50 ([2]; oral route) was > 5000 mg/kg and the MIC (Streptococcus foecalis; [3]) was > 10 µg/mL. For the same compound, the MIC (Klebsiella pneumoniae; 18 hours, 37° C.) was > 10 µg/mL, the MIC (Citrobacter; 18 hours, 37° C.) was > 10 µg/mL and the MIC (Pseudomonas aeruginosa; 18 hours, 37° C.) was > 10 µg/mL. The MIC (Staphylococcus aureus; 18 hours, 37° C.) was > 10 µg/mL, the MIC (Proteus mirabilis; 18 hours, 37° C.) was > 10 µg/mL and the MIC (Escherichia coli; 18 hours, 37° C.) was 5 µg/mL (≈ 19.6 µM).
With CCn1cc(C(=O)O)c(=O)c2ccc3cnn(CC)c3c21 [I h, 1,9-diethyl-3-carboxy-4-oxo-pyrazolo[4,5-h]quinoline] the MIC (Streptococcus foecalis; [3]) was > 10 µg/mL, the MIC (Klebsiella pneumoniae; 18 hours, 37° C.) was > 10 µg/mL and the MIC (Pseudomonas aeruginosa; 18 hours, 37° C.) was > 10 µg/mL. The MIC (Staphylococcus aureus; 18 hours, 37° C.) was > 10 µg/mL and the MIC (Proteus mirabilis; 18 hours, 37° C.) was > 10 µg/mL.
In the case of CCn1cc(C(=O)O)c(=O)c2ccc3[nH]ncc3c21 [I b, 1-ethyl-3-carboxy-4-oxo-pyrazolo[5,4-h]quinoline], the MIC (Streptococcus foecalis; [3]) is reported as > 100 µg/mL, the MIC (Salmonella para B; [4]) is reported as > 100 µg/mL and the MIC (Klebsiella pneumoniae; 18 hours, 37° C.) is reported as > 100 µg/mL. For the same compound, the MIC (Pseudomonas aeruginosa; 18 hours, 37° C.) was > 100 µg/mL, the MIC (Staphylococcus aureus; 18 hours, 37° C.) was > 100 µg/mL and the MIC (Proteus mirabilis; 18 hours, 37° C.) was > 100 µg/mL. For the same compound, the MIC (Escherichia coli; 18 hours, 37° C.) was > 100 µg/mL.
